According to US4007184A, “Substituted alkyl esters of quinoxaline-di-N-oxide-2-carboxylic acid” (Pfizer Inc., priority 1975, dated 1977):
In brackets after ≈: the same amount, converted by molar mass. Where a name gives a salt, the structure may show the parent alone.

What was measured:
[1] = tested on: Escherechia coli; assay: in vivo antibacterial activity against acute infections in mice, oral; settings: for responders at 200 mg/kg / responders at 50 mg/kg: Escherichia coli, in Mus musculus, po, 96 h; for responders at 200 mg/kg: read-out: percent animals which survived, E. coli, *200 mg./kg., mice, oral, 200 mg./kg. (footnote *); for responders at 50 mg/kg: read-out: percent animals which survived, E. coli, **50 mg./kg., mice, oral, 50 mg./kg.; for percent animals which survived, E. coli 25 / percent animals which survived, E. coli 100: mice, oral; for percent animals which survived, E. coli 25: 25 mg./kg.; for percent animals which survived, E. coli 100: 100 mg./kg.
Description: (§1) The in vivo efficacy of the compounds of the instant invention is determined by the antibacterial activity against acute infections in mice. The acute experimental infections are produced by the intraperitoneal inoculation of standardized culture suspended in either 5% hog gastric mucin or broth.
(§2) Stock cultures of test organisms are normally maintained on slants or in liquid medium. When not routinely used they are maintained at refrigerator temperature or in a lyophilized state. When it becomes to use a culture in animal protection tests the culture is suspended in a volume of saline or broth, and the density of the suspension is measured by a photo-electric colorimeter. From this stock, ten-fold dilutions are prepared. Each dilution is inoculated into a series of mice in order to determine the LD100, the LD100 being the lowest concentration of organisms required to produce 100 percent deaths. […] This means that we are using about 10 LD100 or 10 times the minimum dose required to kill mice. Such a test would also include the use of control animals which receive an inoculum of 10^^-4, 10^^-5 and possibly 10^^-6. These dilutions are included as a check on possible variation in virulence which can occur. Having previously determined, through the virulence titration, that 10^^-4 was the maximum dilution that will kill we naturally expect these animals to die, usually within 24 hours.
(§3) Each organism has its own standardized inoculum level. Some, such as Staphylococcus, may be used at 10^^-1, while others like Streptococcus require weekly animal passage in order to maintain virulence.
(§4) When evaluating an antibiotic for its effectiveness after a single dose, the dose is usually administered 0.5 hour after inoculating the mice with the lethal concentration of organisms. In this type of treatment schedule surviving mice are usually held for 4 days after the treatment and the percent alive is calculated.

[2] = tested on: Streptococcus pyogenes; assay: as above; settings: for percent animals which survived, S. pyogenes 50: 50 mg./kg.; for percent animals which survived, S. pyogenes 200: 200 mg./kg.
Description: as §1, §2, §3, §4

[3] = tested on: Staphylococcus aureus; assay: in vitro activity (MIC), two-fold serial dilution technique; format: cell-based; settings: 37° C., approximately 24 hours, method gives concentrations as mcg. of compound per ml., read-out: MIC (Minimal Inhibitory Concentration) S. aureus
[4] = tested on: Escherechia coli; assay: as above; format: cell-based; settings: Escherichia coli, 37° C., approximately 24 hours, method gives concentrations as mcg. of compound per ml., read-out: MIC (Minimal Inhibitory Concentration) E. coli
[5] = tested on: Salmonella cholerasuis var. kunzendorf; assay: protection against systemic challenge infection in swine; format: in vivo; settings: intramuscular, day 10, placebo 83
Description: Young, 6-8 week old pigs are conditioned for 14 days in isolation rooms and maintained during the entire study on a basal ration consisting of ground yellow corn (78.4%), soybean meal (15%), alfalfa meal (2%), meat bone scraps (2.5%), limestone (0.4%), dicalcium phosphate (0.65%), iodized salt (0.5%), Vitamin pre-mix PPM-5 (0.5%), quadruple delamix (0.05%) and zinc carbonate (7.8 g./100 lbs. mix). All the pigs, which are divided into groups of six, are inoculated on day 0 with 4 ml. (approximately 2.0 × 10^8 organisms) of the stock inoculating suspension. Treatment with the quinoxaline-di-N-oxides of the present invention is carried out on day 0 and day 1 by intramuscular injection at 12 hour intervals at doses of 2.5 and 5 mg./kg. On day 10 the percent mortality in each group is calculated.

[6] = growth promotion in swine; format: in vivo; settings: 50 g./ton of feed, 28 days; for Weight Gain Index: control = 100
Description: In practice, growth promotion is determined in swine, for instance, by the method wherein young pigs from 5-6 weeks of age and averaging 21.5 lbs. initial body weight are maintained on an ad libitum consumption of water and feed formulation consisting of ground yellow corn (58.1%), soybean meal (19.6%), alfalfa meal (2.0%), dried skim milk (5.0%), dried whey (10.0%), stabilized animal fat (2.5%), limestone (0.6%), dicalcium phosphate (1.1%), iodized salt (0.5%), vitamin premix PPM-5 (0.5%), quadruple delamix (0.05%), and zinc carbonate (156 g./2000 lbs. mix). The pigs are divided into groups of 32 pigs each and are held for a pre-experimental period of 3 days prior to starting the experiment. The quinoxaline-di-N-oxides of the present invention are added to the feed at a ratio of 50 g. of compound per ton of feed. After 28 days the efficacy of said added compounds on growth promotion is measured by a comparison of the growth in terms of weight gain of the treated animals with the untreated control group, which is arbitrarily assigned a weight gain Index of 100. For example, if a compound effects a growth 23% greater than the control group (with an Index of 100) it would be assigned a value of 123, etc.
Employing the previously described procedure for determining growth promotion in animals, the following quinoxaline-di-N-oxides were tested at 50 g./ton of feed in swine for a period of 28 days and provided the following results: […]

| Structure (SMILES) | responders at 200 mg/kg [1] [%] | responders at 50 mg/kg [1] [%] | MIC [3] [µg/mL] | MIC [4] [µg/mL] | further results |
| --- | --- | --- | --- | --- | --- |
| CCCCCCCC(=O)OCCOC(=O)c1c(C)[n+]([O-])c2ccccc2[n+]1[O-] | 100 | 50 |  |  |  |
| CCN(CC)CC(C)OC(=O)c1c(C)[n+]([O-])c2ccccc2[n+]1[O-] (centres unmarked) [H CH(CH3)CH2 N(C2 H5)2.HCl] |  |  |  |  | percent animals which survived, E. coli 25 [1]: 0%; percent animals which survived, E. coli 100 [1]: 60%; percent animals which survived, S. pyogenes 50 [2]: 20%; percent animals which survived, S. pyogenes 200 [2]: 80% |
| CCCC(=O)OCCOC(=O)c1c(C)[n+]([O-])c2ccccc2[n+]1[O-] | 90 | 80 |  |  |  |
| CCN(CC)CCOC(=O)c1c(C)[n+]([O-])c2ccccc2[n+]1[O-].Cl [H (CH2)2 N(C2 H5)2.HCl, 3-Methyl-2-quinoxalinecarboxylic acid, 2-(diethylamino)ethyl ester, 1,4-dioxide hydrochloride] |  |  | 100 | 12.5 |  |
| CCOC(=O)OCCOC(=O)c1c(C)[n+]([O-])c2ccccc2[n+]1[O-] |  |  |  |  | percent animals which survived, E. coli 100 [1]: 30% |
| Cc1c(C(=O)OCCOC(=O)C[N+](C)(C)C)[n+]([O-])c2ccccc2[n+]1[O-] | 90 | 40 |  |  |  |
| CC1(C)S[C@@H]2[C@H](NC(=O)Cc3ccccc3)C(=O)N2[C@H]1C(=O)O [Benzylpenicillin (K Salt), Benzylpenicillin, reference compound] |  |  | 0.156 | > 100 |  |
| CC(=O)OCCOC(=O)c1c(C)[n+]([O-])c2ccccc2[n+]1[O-] [3-Methyl-2-quinoxalinecarboxylic acid, 2-(acetyloxy)ethyl ester, 1,4-dioxide] |  |  |  |  | % Mortality ([5]; 2.5 mg./kg. × 4 at 12 hour intervals): 67%; % Mortality ([5]; 5.0 mg./kg. × 4 at 12 hour intervals): 17% |
| Cc1c(C(=O)OCCOC(=O)CCC(=O)O)[n+]([O-])c2ccccc2[n+]1[O-] [drawing 100] | 100 | 80 |  |  |  |
| Cc1c(C(=O)OCCOC(=O)CCl)[n+]([O-])c2ccccc2[n+]1[O-] | 100 | 100 |  |  |  |
| Cc1c(C(=O)OCCN)[n+]([O-])c2ccccc2[n+]1[O-] [H (CH2)2 NH2.HCl, 3-Methyl-2-quinoxalinacarboxylic acid, 2-aminoethyl ester, 1,4-dioxide hydrochloride] |  |  |  |  | percent animals which survived, E. coli 25 [1]: 100%; % Growth Over Control [6]: 39%; Weight Gain Index [6]: 139; percent animals which survived, S. pyogenes 50 [2]: 30%; percent animals which survived, S. pyogenes 200 [2]: 90% |
| Cc1c(C(=O)OCCCN(C)C)[n+]([O-])c2ccccc2[n+]1[O-].Cl [H (CH2)3 N(CH3)2.HCl, 3-Methyl-2-quinoxalinecarboxylic acid, 3-(dimethylamino)propyl ester, 1,4-dioxide hydrochloride] |  |  |  |  | percent animals which survived, E. coli 25 [1]: 40%; percent animals which survived, E. coli 100 [1]: 80%; percent animals which survived, S. pyogenes 50 [2]: 20%; percent animals which survived, S. pyogenes 200 [2]: 100% |
| Cc1c(C(=O)OCCO)[n+]([O-])c2ccccc2[n+]1[O-] [H (CH2)2 OH, 3-Methyl-2-quinoxalinecarboxylic acid, 2-hydroxyethyl ester, 1,4-dioxide] |  |  |  |  | percent animals which survived, E. coli 25 [1]: 80%; percent animals which survived, E. coli 100 [1]: 100%; percent animals which survived, S. pyogenes 50 [2]: 60%; percent animals which survived, S. pyogenes 200 [2]: 100% |
| CCN(CC)CCCOC(=O)c1c(C)[n+]([O-])c2ccccc2[n+]1[O-].Cl [H (CH2)3 N(C2 H5)2.HCl, 3-Methyl-2-quinoxalinecarboxylic acid, 3-(diethylamino)propyl ester, 1,4-dioxide hydrochloride] |  |  | 200 | 12.5 |  |
| CCCCCCC(=O)OCCOC(=O)c1c(C)[n+]([O-])c2ccccc2[n+]1[O-] | 100 | 10 |  |  |  |
| Cc1c(C(=O)OCCOC(=O)OCC(C)C)[n+]([O-])c2ccccc2[n+]1[O-] | 90 |  |  |  |  |
| CC(=O)OCCOC(=O)c1c(C)[n+]([O-])c2ccccc2[n+]1[O-] [drawing 103] |  |  |  |  | % Growth Over Control [6]: 53%; Weight Gain Index [6]: 153 |
| CC(=O)OCCOC(=O)c1c(C)[n+]([O-])c2ccccc2[n+]1[O-] [drawing 80] |  |  | 12.5 (≈ 40.8 µM) | 50 (≈ 163 µM) |  |
| CCNC(=O)OCCOC(=O)c1c(C)[n+]([O-])c2ccccc2[n+]1[O-] [drawing 89] | 30 | 40 |  |  |  |
| Cc1c(C(=O)OCCOC(=O)CCC(=O)O)[n+]([O-])c2ccccc2[n+]1[O-] [drawing 83] |  |  | 200 (≈ 549 µM) | > 200 |  |
| Cc1c(C(=O)OCCOC(=O)CCCC(=O)O)[n+]([O-])c2ccccc2[n+]1[O-] | 90 | 50 |  |  |  |
| Cc1c(C(=O)OC(C)CN(C)C)[n+]([O-])c2ccccc2[n+]1[O-].Cl (centres unmarked) [H CH(CH3)CH2 N(CH3)2.HCl, 3-Methyl-2-quinoxalinecarboxylic acid, 1-methyl-2-(dimethyl-amino)ethyl ester, 1,4-dioxide hydrochloride] |  |  | 200 | 100 |  |
| CCN(C)CCOC(=O)c1c(C)[n+]([O-])c2ccccc2[n+]1[O-].Cl [H (CH2)2 N(CH3)C2 H5.HCl, 3-Methyl-2-quinoxalinecarboxylic acid, 2-(methylethylamino)-ethyl ester, 1,4-dioxide hydrochloride] |  |  | 100 | 12.5 | percent animals which survived, E. coli 25 [1]: 0%; percent animals which survived, E. coli 100 [1]: 80%; percent animals which survived, S. pyogenes 50 [2]: 60%; percent animals which survived, S. pyogenes 200 [2]: 100% |
| CCCCC(=O)OCCOC(=O)c1c(C)[n+]([O-])c2ccccc2[n+]1[O-] | 100 | 60 |  |  |  |
| CCCCCC(=O)OCCOC(=O)c1c(C)[n+]([O-])c2ccccc2[n+]1[O-] | 90 | 0 |  |  |  |
| Cc1c(C(=O)OCCN(C)C)[n+]([O-])c2ccccc2[n+]1[O-].Cl [H (CH2)2 N(CH3)2.HCl, 3-Methyl-2-quinoxalinecarboxylic acid, 2-(dimethylamino)ethyl ester, 1,4-dioxide hydrochloride] |  |  | 100 | 6.25 | percent animals which survived, E. coli 25 [1]: 40%; percent animals which survived, E. coli 100 [1]: 100%; percent animals which survived, S. pyogenes 50 [2]: 20%; percent animals which survived, S. pyogenes 200 [2]: 70% |
| CC(=O)OCCOC(=O)c1c(C)[n+]([O-])c2ccccc2[n+]1[O-] [drawing 85] |  |  |  |  | percent animals which survived, E. coli 25 [1]: 80%; percent animals which survived, E. coli 100 [1]: 100%; percent animals which survived, S. pyogenes 50 [2]: 80%; percent animals which survived, S. pyogenes 200 [2]: 80% |
| CCCCCCCCCC(=O)OCCOC(=O)c1c(C)[n+]([O-])c2ccccc2[n+]1[O-] | 100 | 70 |  |  |  |
| CCC(=O)OCCOC(=O)c1c(C)[n+]([O-])c2ccccc2[n+]1[O-] | 90 | 80 |  |  |  |
| CCNC(=O)OCCOC(=O)c1c(C)[n+]([O-])c2ccccc2[n+]1[O-] [drawing 82] |  |  | 25 (≈ 74.6 µM) | > 200 |  |
